# Measurements from ChEMBL document CHEMBL3046063, “Synthesis and antimicrobial activity of 5-chloroindoline-2,3-dione derivatives” (2012).
# Columns and labels:
# Assay type in all cases: functional
# Pseudomonas aeruginosa = assay: Antimicrobial activity against Pseudomonas aeruginosa ATCC 10145 after 24 hr by broth dilution method; settings: ATCC 10145, 24 h
# Staphylococcus aureus = assay: Antimicrobial activity against Staphylococcus aureus ATCC 25923 after 24 hr by broth dilution method; settings: ATCC 25923, 24 h
# Alternaria alternata = assay: Antimicrobial activity against Alternaria alternata ATCC 66868 after 24 hr by broth dilution method; settings: ATCC 66868, 24 h
# Aspergillus flavus = assay: Antimicrobial activity against Aspergillus flavus ATCC 15517 after 24 hr by broth dilution method; settings: ATCC 15517, 24 h
# Aspergillus awamori = assay: Antimicrobial activity against Aspergillus awamori ATCC 22342 after 24 hr by broth dilution method; settings: ATCC 22342, 24 h
# Rhizoctonia solani = assay: Antimicrobial activity against Rhizoctonia solani ATCC 76131 after 24 hr by broth dilution method; settings: ATCC 76131, 24 h
# Trichophyton longifusum = assay: Antimicrobial activity against Trichophyton longifusum ATCC 22397 after 24 hr by broth dilution method; settings: ATCC 22397, 24 h
# Proteus mirabilis = assay: Antimicrobial activity against Proteus mirabilis ATCC 49565 after 24 hr by broth dilution method; settings: ATCC 49565, 24 h
# Escherichia coli = assay: Antimicrobial activity against Escherichia coli ATCC 25922 after 24 hr by broth dilution method; settings: ATCC 25922, 24 h
# Candida albicans = assay: Antimicrobial activity against Candida albicans ATCC 10231 after 24 hr by broth dilution method; settings: ATCC 10231, 24 h
# Klebsiella pneumoniae = assay: Antimicrobial activity against Klebsiella pneumoniae ATCC 13883 after 24 hr by broth dilution method; settings: ATCC 13883, 24 h
# Microsporum canis = assay: Antimicrobial activity against Arthroderma otae ATCC 11622 after 24 hr by broth dilution method; settings: ATCC 11622, 24 h
# Proteus vulgaris = assay: Antimicrobial activity against Proteus vulgaris ATCC 13315 after 24 hr by broth dilution method; settings: ATCC 13315, 24 h
# Salmonella typhi = assay: Antimicrobial activity against Salmonella enterica subsp. enterica serovar Typhi ATCC 19430 after 24 hr by broth dilution method; settings: ATCC 19430, 24 h
# Trichoderma viride = assay: Antimicrobial activity against Hypocrea rufa ATCC 52440 after 24 hr by broth dilution method; settings: ATCC 52440, 24 h
# Bacillus pumilus = assay: Antimicrobial activity against Bacillus pumilus ATCC 14884 after 24 hr by broth dilution method; settings: ATCC 14884, 24 h
# Bacillus cereus = assay: Antimicrobial activity against Bacillus cereus ATCC 11778 after 24 hr by broth dilution method; settings: ATCC 11778, 24 h
# Micrococcus luteus = assay: Antimicrobial activity against Micrococcus luteus ATCC 4698 after 24 hr by broth dilution method; settings: ATCC 4698, 24 h
# Aspergillus niger = assay: Antimicrobial activity against Aspergillus niger ATCC 9142 after 24 hr by broth dilution method; settings: ATCC 9142, 24 h
# [1] = test system: Staphylococcus epidermidis; assay: Antimicrobial activity against Staphylococcus epidermidis ATCC 12228 after 24 hr by broth dilution method; settings: ATCC 12228, 24 h
# Fusarium solani = assay: Antimicrobial activity against Fusarium solani ATCC 38136 after 24 hr by broth dilution method; settings: ATCC 38136, 24 h
# Bacillus spizizenii = assay: Antimicrobial activity against Bacillus subtilis subsp. spizizenii ATCC 6633 after 24 hr by broth dilution method; settings: ATCC 6633, 24 h
# Staphylococcus hominis = assay: Antimicrobial activity against Staphylococcus hominis ATCC 27844 after 24 hr by broth dilution method; settings: ATCC 27844, 24 h
# Aspergillus fumigatus = assay: Antimicrobial activity against Aspergillus fumigatus after 24 hr by broth dilution method
SMILES,MIC (Pseudomonas aeruginosa) [mg/L],MIC (Staphylococcus aureus) [mg/L],MIC (Alternaria alternata) [mg/L],MIC (Aspergillus flavus) [mg/L],MIC (Aspergillus awamori) [mg/L],MIC (Rhizoctonia solani) [mg/L],MIC (Trichophyton longifusum) [mg/L],MIC (Proteus mirabilis) [mg/L],MIC (Escherichia coli) [mg/L],MIC (Candida albicans) [mg/L],MIC (Klebsiella pneumoniae) [mg/L],MIC (Microsporum canis) [mg/L],MIC (Proteus vulgaris) [mg/L],MIC (Salmonella typhi) [mg/L],MIC (Trichoderma viride) [mg/L],MIC (Bacillus pumilus) [mg/L],MIC (Bacillus cereus) [mg/L],MIC (Aspergillus niger) [mg/L],MIC (Fusarium solani) [mg/L],MIC (Aspergillus fumigatus) [mg/L],further results
COc1cccc(C2SCC(=O)N2/N=C2\C(=O)Nc3ccc(Cl)cc32)c1 (stereo not given),75,37.5,18.8,18.8,37.5,18.8,37.5,37.5,75,18.8,37.5,18.8,37.5,75,18.8,75,75,37.5,18.8,37.5,MIC (Micrococcus luteus): 75 mg/L; MIC [1]: 75 mg/L; MIC (Bacillus spizizenii): 75 mg/L; MIC (Staphylococcus hominis): 37.5 mg/L
O=C1Nc2ccc(Cl)cc2/C1=N/N1C(=O)C(Cl)C1c1ccccc1Cl (stereo not given),300,300,150,150,150,150,150,300,150,75,300,75,150,300,150,300,300,150,150,150,MIC (Micrococcus luteus): 150 mg/L; MIC [1]: 150 mg/L; MIC (Bacillus spizizenii): 150 mg/L; MIC (Staphylococcus hominis): 300 mg/L
O=C1Nc2ccc(Cl)cc2/C1=N/N1C(=O)CSC1c1ccc(Cl)cc1 (stereo not given),9.37,18.8,4.68,4.68,9.37,9.37,4.68,18.8,9.37,4.68,18.8,4.68,37.5,9.37,9.37,9.37,9.37,4.68,9.37,4.68,MIC (Micrococcus luteus): 18.8 mg/L; MIC [1]: 18.8 mg/L; MIC (Bacillus spizizenii): 37.5 mg/L; MIC (Staphylococcus hominis): 9.37 mg/L
Clc1ccccc1C(c1ccccc1)(c1ccccc1)n1ccnc1 [CLOTRIMAZOLE],–,–,2.34,2.34,2.34,1.17,2.34,–,–,0.58,–,1.17,–,–,1.17,–,–,2.34,1.17,2.34,–
O=C1Nc2ccc(Cl)cc2/C1=N/N1C(=O)C(Cl)C1c1ccccc1O (stereo not given),300,150,150,150,150,150,150,150,150,75,300,150,150,300,150,300,300,75,75,150,MIC (Micrococcus luteus): 150 mg/L; MIC [1]: 300 mg/L; MIC (Bacillus spizizenii): 300 mg/L; MIC (Staphylococcus hominis): 300 mg/L
COc1ccc(C2C(Cl)C(=O)N2/N=C2\C(=O)Nc3ccc(Cl)cc32)cc1 (stereo not given),9.37,18.8,9.37,9.37,4.68,9.37,4.68,18.8,9.37,4.68,9.37,9.37,18.8,9.37,4.68,9.37,9.37,4.68,4.68,4.68,MIC (Micrococcus luteus): 9.37 mg/L; MIC [1]: 9.37 mg/L; MIC (Bacillus spizizenii): 18.8 mg/L; MIC (Staphylococcus hominis): 18.8 mg/L
COc1cccc(C2C(Cl)C(=O)N2/N=C2\C(=O)Nc3ccc(Cl)cc32)c1 (stereo not given),37.5,75,18.8,18.8,37.5,18.8,18.8,75,75,18.8,37.5,37.5,75,75,37.5,75,37.5,37.5,37.5,18.8,MIC (Micrococcus luteus): 37.5 mg/L; MIC [1]: 37.5 mg/L; MIC (Bacillus spizizenii): 75 mg/L; MIC (Staphylococcus hominis): 75 mg/L
